The text below walks through data of PMC12070314, “Efficient Small-Molecule Reversal Agents for Anticoagulant Fondaparinux” (ACS Pharmacology & Translational Science, 2025).

Series [1] has as its system FXa/ATIII inhibited by LMWH. The experiment in a line: In vitro FXa/ATIII enzymatic assay with LMWH. Type of series: biochemical, human. Particulars: [LMWH] = [antidote] = 0.1 or 10 μM, Figure S3. The procedure:
Recombinant antithrombin III and coagulation factor Xa were obtained from two different kits, Berichrom Heparin test (SIEMENS) and Kinetichrome Anti-Xa Heparin kit (Iduron). Methods for both kits are similar, but not identical. Differences will be spotted by method A (SIEMENS) and method B (Iduron). Following the manufacturer’s instructions, stock solutions were prepared as follows: human antithrombin III (1 IU/mL) and factor Xa reagent (0.4 μg/mL, human plasma fraction with additives Tris, sodium chloride, and EDTA). Chromogenic substrate specific for factor Xa was dissolved at 4 mM concentration (A: Z-D-Leu-Gly-Arg-ANBA-methyl amide, and B: Z-D-Arg-Gly-Arg-pNA). Additionally, either 4-nitroaniline (A) or N-Boc-4-nitroaniline (B) was added to the substrate solution at a concentration of 1.6 mM and used as an internal standard to quantify the hydrolysis of the chromogenic substrate. All compounds were dissolved in Milli-Q water at the desired stock concentrations prior to start of the assays and kept at 4 °C. […] FXa/ATIII activity was represented as the percent of hydrolysis, which was calculated from the normalized area of the cleaved peptide at 405 nm at each corresponding time point. […]

In series [2] the test system is A549 cells. In words: MTT cell viability assay. The settings on record: A549, concentrations <100 μM. Type of series: cell-based. On the procedure:
(§1) A549 and HeLa cells were maintained in DMEM ([…] glucose, Sigma) containing 10% fetal calf serum (FCS), 2 mM glutamine, 50 U/mL penicillin, and […] streptomycin at 37 °C under a 5% CO2 atmosphere. HMEC-1 and fibroblast cells were maintained in MCDB 131 medium (GIBCO) containing 10% fetal calf serum (FCS), 2 mM glutamine, 50 U/mL penicillin, and […] streptomycin at 37 °C under a 5% CO2 atmosphere.
(§2) The viability of A549 and HeLa cells was tested using the 3-(4,5-dimethylthiazol-2-yl)-2,5-diphenyltetrazolium bromide (MTT) assay. In it, exponentially growing cells were detached from the culture flasks using a trypsin–0.25% EDTA solution, and the cell suspension was seeded onto a 96-well plate (Nunclon) at a concentration of 9k cells/well. The toxicity of 3AC and 3FF was tested as follows: 24 h after seeding, culture medium was discarded and replaced by compound solution in PBS that was diluted with cell culture medium to the final concentration: [3××] = 10 to 100 μM. MTT (0.5 mg/mL) was added. […] Absorbance was measured at 570 nm using a spectrophotometric BioTek Synergy 2 Microplate Reader (Agilent), 30 min after the addition of DMSO. Cell viability is expressed as an absorbance percent ratio of cells treated with compound to untreated cells, which were used as a control. The results are the average from three independent experiments.
A general note: Tetrazolium assays rely on reduction of a dye to a coloured formazan, in cell work by metabolically active cells.

Series [3] deals with HeLa cells. The experiment in a line: MTT cell viability assay. It counts as cell-based. The settings on record: concentrations <100 μM. On the procedure: as §1, §2
Series [4] has as its system HMEC-1 cells. In words: Resazurin cell viability assay. Type of series: cell-based. Particulars: for Cell viability (toxicity): HMEC-1, concentrations <100 μM, resazurin. The procedure:
as §1
(§3) The viability of HMEC-1 and fibroblast cells was tested using the resazurin assay. In it, exponentially growing cells were detached from the culture flasks using a trypsin–0.25% EDTA solution, and the cell suspension was seeded onto a 96-well plate (Nunclon) at a concentration of 9k cells/well. Toxicity of 3AC and 3FF was tested as follows: 72 h after seeding, culture medium was discarded and replaced by compound solution in PBS that was diluted with cell culture medium to the final concentration: [3××] = 10 to 100 μM. Resazurin (0.1 mg/mL) was added. After 2 h of incubation, fluorescence was measured (λex = 560 nm // λem = 590 nm) using a spectrophotometric BioTek Synergy 2 Microplate Reader (Agilent). Cell viability is expressed as an emission percent ratio of cells treated with the compound to untreated cells, which were used as a control. The results are the average from three independent experiments. In experiments with fondaparinux, the cells were incubated for 2 h with [fondaparinux] = 100 μM and [3××] = 50/100/200 μM following the same procedure for the rest of the protocol.

Series [5] relates to fibroblasts. The experiment in a line: Resazurin cell viability assay. Type of series: cell-based. Particulars: for Cell viability (toxicity): concentrations <100 μM, resazurin. The procedure:
as §1, §3
On the technique in general: Alamar Blue is a resazurin reagent that responds to reducing activity.

Series [6] can be described thus: Hemolysis assay. Type of series: cell-based. The settings on record: freshly isolated mouse erythrocytes, roughly 4-5% suspension, 37 °C. On the procedure: Mouse blood (4 mL) was collected in a sodium citrate tube and immediately centrifuged at 1700g for 5 min. The supernatant was removed, and the erythrocytes were washed by adding 2 mL of PBS. It was centrifuged again at 1700g for 5 min. The washing step was repeated twice more. The supernatant was finally removed, and the erythrocytes were diluted in PBS until obtaining a roughly 4–5% suspension. 50 μL of erythrocyte solution was mixed with 50 μL of test compound (3×× at the desired concentration). As a negative control, 50 μL of PBS was used, while 10% Triton X-100 was used as a positive control. The samples were incubated at 37 °C for 60 min. After that, they were centrifuged (1700g for 5 min), and the supernatant was transferred to a 96-well plate. Absorbance was measured at 405 nm. The experiment contained three technical replicates. The results are the average from three independent experiments.

Regarding `Oc1ccccc1CNCCCNCCCCNCCCNCc1ccc2c(c1)Cc1ccccc1-2` [Compound 3AC], the “Percent recovery of peptide substrate hydrolysis vs LMWH” value in series [1] was “more active than prot and similar to cir”. Also, the “Cell viability (toxicity)” value in series [2], in series [3], in series [4] and in series [5] was “low to acceptable cell toxicity” throughout. For the same compound, the “Cell toxicity in the presence of fondaparinux” value was “reduced” in series [4] (HMEC-1, 100 μM fondaparinux, 50/100/200 μM compound) and “reduced” in series [5] (100 μM fondaparinux, 50/100/200 μM compound). In addition, the hemolysis at 60 min in series [6] was below 2%.
Consider `Oc1ccc2ccccc2c1CNCCCNCCCCNCCCNCc1c(O)ccc2ccccc12` [Compound 3FF], for which, in series [1], the “Percent recovery of peptide substrate hydrolysis vs LMWH” value was “more active than prot and similar to cir”. The “Cell viability (toxicity)” value in series [2], in series [3], in series [4] and in series [5] was “low to acceptable cell toxicity” each time. Besides, the hemolysis at 60 min in series [6] is below 2%.
